Reference: patent US20070020684A1, “Structure of a glucocorticoid receptor ligand binding domain comprising an expanded binding pocket and methods employing same” (priority 2002, published 2007)
Each block holds one molecule with its values, some of them ahead of it.

Experiments:
PR = target: T1, PR (Homo sapiens, UniProt P06401); conditions: known, potent, non-steroidal agonist; cited from earlier work
T1 sequence (P06401 1-933): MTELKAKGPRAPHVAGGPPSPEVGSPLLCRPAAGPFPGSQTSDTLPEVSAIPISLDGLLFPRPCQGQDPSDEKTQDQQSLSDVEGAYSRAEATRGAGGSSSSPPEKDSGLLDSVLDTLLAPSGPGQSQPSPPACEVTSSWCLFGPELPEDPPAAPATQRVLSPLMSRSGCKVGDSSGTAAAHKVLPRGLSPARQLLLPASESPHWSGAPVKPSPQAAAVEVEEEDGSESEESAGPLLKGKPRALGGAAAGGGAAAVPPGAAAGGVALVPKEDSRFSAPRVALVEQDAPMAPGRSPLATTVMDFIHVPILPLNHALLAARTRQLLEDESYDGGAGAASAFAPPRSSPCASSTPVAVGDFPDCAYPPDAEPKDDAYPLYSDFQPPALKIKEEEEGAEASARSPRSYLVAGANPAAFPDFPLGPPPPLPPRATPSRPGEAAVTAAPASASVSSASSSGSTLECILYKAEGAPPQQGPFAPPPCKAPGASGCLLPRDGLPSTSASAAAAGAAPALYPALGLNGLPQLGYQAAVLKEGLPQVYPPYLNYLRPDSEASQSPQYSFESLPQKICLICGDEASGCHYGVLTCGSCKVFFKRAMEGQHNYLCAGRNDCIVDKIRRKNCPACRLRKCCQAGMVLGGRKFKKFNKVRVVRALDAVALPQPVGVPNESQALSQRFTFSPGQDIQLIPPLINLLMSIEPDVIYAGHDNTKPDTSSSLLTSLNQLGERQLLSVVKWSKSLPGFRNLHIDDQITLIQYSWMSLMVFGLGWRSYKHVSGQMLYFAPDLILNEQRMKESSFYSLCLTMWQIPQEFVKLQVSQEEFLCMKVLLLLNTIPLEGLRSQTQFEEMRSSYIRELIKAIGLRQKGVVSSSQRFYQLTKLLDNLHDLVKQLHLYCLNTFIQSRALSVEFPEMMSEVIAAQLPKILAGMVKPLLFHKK

[1] = target: T2, GR LBD (521-777) F602S polypeptide (human glucocorticoid receptor alpha ligand binding domain) (human, UniProt P04150 521-777); assay: X-ray co-crystal structure, 2.6 Å
T2 construct: Expressed in E. coli from plasmid 6xHisGS-TGR(521-777) F602S pET24; The fusion tag was cut off with thrombin before complex formation and crystallization; Residue numbers in the text follow full-length human GR; In the crystal, two LBD monomers form a symmetric dimer; also called GRα LBD; GR LBD F602S
T2 sequence: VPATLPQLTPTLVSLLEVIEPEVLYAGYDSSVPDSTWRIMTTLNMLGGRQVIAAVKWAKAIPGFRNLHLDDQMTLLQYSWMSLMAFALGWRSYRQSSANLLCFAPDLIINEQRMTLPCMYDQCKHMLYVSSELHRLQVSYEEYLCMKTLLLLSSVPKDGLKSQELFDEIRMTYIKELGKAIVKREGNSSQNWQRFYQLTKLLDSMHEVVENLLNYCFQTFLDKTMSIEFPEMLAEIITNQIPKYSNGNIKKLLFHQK

Molecule: CC1CCC(c2ccc(Cl)c(C(F)(F)F)c2)=NN1S(=O)(=O)c1ccc(I)cc1 (centres unmarked) [RWJ-60130, 3-(4-chloro-3-trifluoromethylphenyl)-1-(4iodobenzensulfonyl)-6-methyl-1,4,5,6-tetrahydropyridazine]
binding affinity for PR (in words) (PR): high-affinity

binding result [1]: binds
B1: TIF2 peptide (residues 740-753 of the human TIF2 protein), KENALLRYLLDKDD (peptide)
peptide: KENALLRYLLDKDD
